Measurements published in PubChem BioAssay AID330 (DTP/NCI, 2004).
Values joined by “and” are separate entries in the source; they are usually repeats but may differ in a detail not shown here. Equal values may be shown once. Toxic doses and inconclusive results are not listed.

System: P388 leukemia ip, CD2F1 mice, survival T/C
Assay: NCI In Vivo Anticancer Drug Screen. Data for tumor model P388 Leukemia (intraperitoneal) in CD2F1 (CDF1) mice
Conditions: endpoint: median survival time, higher = longer survival
Method in brief: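 Mice carrying the transplanted tumor received test compound or vehicle. Survival was recorded in each group, and the value is the treated-group measurement divided by that of the vehicle-treated control group.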

[1] = dose: 50.0 mg/kg/injection, schedule: Q01DX009 (ip), vehicle: saline with Tween-80
[2] = dose: 100.0 mg/kg/injection, schedule: Q01DX009 (ip), vehicle: saline with Tween-80
[3] = dose: 200.0 mg/kg/injection, schedule: Q01DX009 (ip), vehicle: saline with Tween-80
[4] = dose: 50.0 mg/kg/injection, schedule: Q01DX005 (ip), vehicle: saline with Tween-80

What does the source list for CN(/N=C/c1ccccc1O)C(=O)c1ccccc1N?
T/C [1]: 105 % of control; T/C [2]: 107 % of control; T/C [3]: 104 % of control

How did the T/C [1] turn out when Cn1c(=O)c2[nH]cnc2n(C)c1=O (tested in a mixture with another compound) was run?
The T/C was 104 % of control.

And the T/C [2]?
The T/C was 95 % of control.

And the T/C [3]?
Its T/C is 104 % of control.

N#CC(Cc1ccc(Cl)cc1)c1ccccc1 (stereo unspecified) was tested. Which T/C (dose: 50.0 mg/kg/injection, schedule: Q01DX009 (ip), vehicle: Klucel (hydroxypropylcellulose) (HPC)) did it give?
Its T/C is 89 % of control.

And the T/C (dose: 100.0 mg/kg/injection, schedule: Q01DX009 (ip), vehicle: Klucel (hydroxypropylcellulose) (HPC))?
Its T/C is 95 % of control.

And the T/C (dose: 200.0 mg/kg/injection, schedule: Q01DX009 (ip), vehicle: Klucel (hydroxypropylcellulose) (HPC))?
The T/C was 96 % of control.

Which results are given for C/C(=N\O)C1CCN(Cc2ccccc2)CC1?
T/C (dose: 12.5 mg/kg/injection, schedule: Q01DX005 (ip), vehicle: Klucel (hydroxypropylcellulose) (HPC)): 105 % of control; T/C (dose: 25.0 mg/kg/injection, schedule: Q01DX005 (ip), vehicle: Klucel (hydroxypropylcellulose) (HPC)): 110 % of control; T/C (dose: 50.0 mg/kg/injection, schedule: Q01DX005 (ip), vehicle: Klucel (hydroxypropylcellulose) (HPC)): 100 % of control and 105 % of control

Which T/C (dose: 2.5 mg/kg/injection, schedule: Q01DX009 (ip), vehicle: saline + alcohol) does the source give for [Cl][Hg][c]1cccc(I)c1N=Nc1ccccc1 here?
The T/C was 104 % of control.

And the T/C (dose: 5.0 mg/kg/injection, schedule: Q01DX009 (ip), vehicle: saline + alcohol)?
Its T/C is 94 % of control.

CN(C)N=Nc1ccc(NC(N)=O)cc1 was tested. Which T/C (dose: 100.0 mg/kg/injection, schedule: Q04DX003 (ip), vehicle: saline + Tween-80 + alcohol) did it give?
The T/C was 154 % of control.

Which T/C [4] does the source give for O=C1C=CC(=Nc2ccc3[nH]c4ccccc4c3c2)C=C1 here?
Its T/C is 101 % of control and 92 % of control and 96 % of control.

What about the T/C (dose: 100.0 mg/kg/injection, schedule: Q01DX005 (ip), vehicle: saline with Tween-80) of the same molecule?
Its T/C is 104 % of control and 93 % of control and 96 % of control.

What about the T/C (dose: 200.0 mg/kg/injection, schedule: Q01DX005 (ip), vehicle: saline with Tween-80) of the same molecule?
Its T/C is 108 % of control and 121 % of control and 96 % of control.

And the T/C (dose: 400.0 mg/kg/injection, schedule: Q01DX005 (ip), vehicle: saline with Tween-80)?
The T/C was 108 % of control.

For CCOc1c(N=Nc2ccc(Br)cc2)c(C)nn1C(=S)S, which T/C (dose: 60.0 mg/kg/injection, schedule: Q01DX005 (ip), vehicle: Klucel (hydroxypropylcellulose) (HPC)) is on record?
The T/C was 105 % of control.

What about the T/C (dose: 120.0 mg/kg/injection, schedule: Q01DX005 (ip), vehicle: Klucel (hydroxypropylcellulose) (HPC)) of the same molecule?
Its T/C is 109 % of control.

Which T/C [4] does the source give for CC1=C(C)C(=O)C(CCl)=[C-]C1=O.[Co].[c-]1[c-][c-][cH-][c-]1 here?
Its T/C is 123 % of control.

O=C(O)C(=O)O.[NH-]CC[NH-].[Pt+2] was tested. Which T/C (dose: 3.12 mg/kg/injection, schedule: Q04DX002 (ip), vehicle: saline with Tween-80) did it give?
The T/C was 117 % of control.

For O=C1/C(=C/c2cccc3ccccc23)SC(=S)N1Cc1ccco1, which T/C [1] is on record?
Its T/C is 92 % of control.

And the T/C [2]?
The T/C was 92 % of control.

What about the T/C [3] of the same molecule?
Its T/C is 99 % of control.

What does the source list for OC(c1cc2ccc(C(F)(F)F)cc2c2cc(C(F)(F)F)ccc12)C1CCCCN1 (stereo unspecified)?
T/C (dose: 12.5 mg/kg/injection, schedule: Q01DX009 (ip), vehicle: saline with Tween-80): 102 % of control and 107 % of control; T/C (dose: 25.0 mg/kg/injection, schedule: Q01DX009 (ip), vehicle: saline with Tween-80): 100 % of control and 102 % of control

Which T/C (dose: 45.0 mg/kg/injection, schedule: Q01DX009 (ip), vehicle: saline with Tween-80) does the source give for Cn1nc(-c2cccnc2)[n+]([O-])c2c(=O)n(C)c(=O)nc1-2 here?
Its T/C is 100 % of control.

And the T/C (dose: 90.0 mg/kg/injection, schedule: Q01DX009 (ip), vehicle: saline with Tween-80)?
Its T/C is 109 % of control.

And the T/C (dose: 180.0 mg/kg/injection, schedule: Q01DX009 (ip), vehicle: saline with Tween-80)?
Its T/C is 112 % of control.

What does the source list for O=c1c(CSc2c(-c3ccccc3)c(=O)c2=O)c(-c2ccccc2)c1=O?
T/C (dose: 100.0 mg/kg/injection, schedule: Q01DX001 (ip), vehicle: saline with Tween-80): 101 % of control; T/C (dose: 200.0 mg/kg/injection, schedule: Q01DX001 (ip), vehicle: saline with Tween-80): 104 % of control; T/C (dose: 400.0 mg/kg/injection, schedule: Q01DX001 (ip), vehicle: saline with Tween-80): 95 % of control

For Cc1c(O)c2c(c(O)c1Cc1ccc(CN)cc1)C(=O)c1ccccc1C2=O, which T/C (dose: 12.5 mg/kg/injection, schedule: Q04DX003 (ip), vehicle: water) is on record?
The T/C was 98 % of control.

What about the T/C (dose: 25.0 mg/kg/injection, schedule: Q04DX003 (ip), vehicle: water) of the same molecule?
The T/C was 90 % of control.

What about the T/C (dose: 50.0 mg/kg/injection, schedule: Q04DX003 (ip), vehicle: water) of the same molecule?
Its T/C is 93 % of control.

What about the T/C (dose: 100.0 mg/kg/injection, schedule: Q04DX003 (ip), vehicle: water) of the same molecule?
The T/C was 103 % of control.

Which T/C (dose: 50.0 mg/kg/injection, schedule: Q01DX009 (ip), vehicle: saline) does the source give for CC(C)OC(=O)NC1CCC2CCCCC2C1 (stereo unspecified) here?
The T/C was 102 % of control.

What about the T/C (dose: 100.0 mg/kg/injection, schedule: Q01DX009 (ip), vehicle: saline) of the same molecule?
Its T/C is 102 % of control.

And the T/C (dose: 200.0 mg/kg/injection, schedule: Q01DX009 (ip), vehicle: saline)?
Its T/C is 100 % of control.
